Test results from patent US20210363173A1, “NEUROSTERIOD DERIVATIVES AND USES THEREOF” (ACERUS BIOPHARMA INC., priority 2018, published 2021).
≈ marks a conversion by molar mass, not a printed value.

How the values were obtained:
[1] = Solubility of esters in oils (solvent added in increments until a room temperature solubility is obtained); type: physicochemical; conditions: for Solubility Limit / solubility: castor oil, room temperature; for solubility: oil or lipid, thermodynamic from solid, read-out: Solubility Limit
Procedure: About 150 mg samples of each drug substance in Table are placed in about 300 mg of a test solvent in a test tube. The samples are swirled and gently heated with a warm water bath. Additional solvent is added in about 100 mg increments until solubility is reached. The samples are cooled overnight and if precipitation is observed, then more solvent is again added in portions until a room temperature solubility is obtained. […] Ganaxolone enanthate is a liquid and appeared miscible in the oils tested.

[2] = system: migraine; conditions: phase 2 clinical trial for migraine; cited from earlier work
[3] = post-oral administration; cited from earlier work

Row | SMILES | Solubility Limit [1] [% w/w] | solubility [1] [µg/mL] | Miscibility in the oils tested ([1]; oils tested, substance is a liquid) | benefit on time to pain relief [2] | drug recovered in feces [3] [%]
1 | CC(=O)[C@H]1CC[C@H]2[C@@H]3CC[C@H]4C[C@H](O)CC[C@]4(C)[C@H]3CC[C@]12C [Allopregnanolone, 5α-pregnan-3α-ol-20-one] | < 1 | < 10000 | – | – | –
2 | CCCCCCC(=O)OC1(C)CCC2(C)C(CCC3C2CCC2(C)C(C(C)=O)CCC32)C1 (stereo not shown) [Ganaxalone Enanthate] | – | – | miscible | – | –
3 | CC(=O)[C@H]1CC[C@H]2[C@@H]3CC[C@H]4C[C@](C)(O)CC[C@]4(C)[C@H]3CC[C@]12C [Ganaxalone, 3a-hydroxy-3-methyl-5a-pregnan-20-one] | ~1 | ~10000 (≈ 30.1 mM) | – | failed to show benefit | ~80
